“And” between values parts separate entries of the source, which are not always exact repeats. Equal entries are not always repeated. Inconclusive results and toxic doses are left out.

The test system of the experiment is BDF1 mice, P388 leukemia ip, median survival T/C. As to the kind of experiment: NCI In Vivo Anticancer Drug Screen. Data for tumor model P388 Leukemia (intraperitoneal) in B6D2F1 (BDF1) mice. The conditions noted are these: endpoint: median survival time, higher = longer survival. The gist of the method: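 Reported as T/C, where T is the survival measurement in dosed animals and C the same measurement in vehicle controls.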

The mark [1] stands for this setting: dose: 50.0 mg/kg/injection, schedule: Q01DX009 (ip), vehicle: saline with Tween-80.
The mark [2] stands for this setting: dose: 100.0 mg/kg/injection, schedule: Q01DX009 (ip), vehicle: saline with Tween-80.
The mark [3] stands for this setting: dose: 200.0 mg/kg/injection, schedule: Q01DX009 (ip), vehicle: saline with Tween-80.
The mark [4] stands for this setting: dose: 400.0 mg/kg/injection, schedule: Q01DX009 (ip), vehicle: saline with Tween-80.
[5] abbreviates: dose: 100.0 mg/kg/injection, schedule: Q04DX003 (ip), vehicle: saline with Tween-80.
[6] abbreviates: dose: 200.0 mg/kg/injection, schedule: Q04DX003 (ip), vehicle: saline with Tween-80.
Where [7] appears, read: dose: 400.0 mg/kg/injection, schedule: Q04DX003 (ip), vehicle: saline with Tween-80.
The mark [8] stands for this setting: dose: 100.0 mg/kg/injection, schedule: Q04DX003 (ip), vehicle: saline.
Where [9] appears, read: dose: 200.0 mg/kg/injection, schedule: Q04DX003 (ip), vehicle: saline.

Take `NC(=O)c1ccc(-c2c3ccccc3cc3c2ccc2ccccc23)cc1`: the T/C by setting is: under setting [1], 95 % of control; under setting [2], 89 % of control; under setting [3], 89 % of control; under setting [4], 106 % of control.
Regarding `OCC1CC1c1ccccc1` (stereo not given), the T/C under setting [1] is 101 % of control, the T/C under setting [2] was 102 % of control and the T/C under setting [3] is 109 % of control.
Regarding `CCCCCCC1OCC2(CO1)COC(CCCCCC)OC2` (stereo not given), the T/C was 90 % of control under setting [5] and 86 % of control under setting [6].
Turning to `CCCCCCC(=O)CCCC(C)CCCC(C)C` (stereo not given), the T/C is 100 % of control (dose: 100.0 mg/kg/injection, schedule: Q01DX009 (ip), vehicle: Klucel (hydroxypropylcellulose) (HPC)); 109 % of control (dose: 200.0 mg/kg/injection, schedule: Q01DX009 (ip), vehicle: Klucel (hydroxypropylcellulose) (HPC)); 118 % of control (dose: 400.0 mg/kg/injection, schedule: Q01DX009 (ip), vehicle: Klucel (hydroxypropylcellulose) (HPC)).
Take `CCOC(=O)C(NC(=O)C(Cc1ccc(N(CCCl)CCCl)cc1)NC(C)=O)C(C)C` (stereo not given): the T/C (dose: 5.0 mg/kg/injection, schedule: Q04DX003 (ip), vehicle: other) was 118 % of control; the T/C (dose: 10.0 mg/kg/injection, schedule: Q04DX003 (ip), vehicle: other) was 118 % of control; the T/C (dose: 40.0 mg/kg/injection, schedule: Q04DX003 (ip), vehicle: other) was 151 % of control; the T/C (dose: 66.0 mg/kg/injection, schedule: Q04DX003 (ip), vehicle: saline with Tween-80) is 168 % of control; the T/C under setting [5] is 186 % of control; the T/C (dose: 150.0 mg/kg/injection, schedule: Q04DX003 (ip), vehicle: saline with Tween-80) was 245 % of control.
Turning to `CN1CCC2=C(C1)C(N1CCCC1)CS(=O)(=O)O2` (stereo not given), the T/C was 100 % of control (dose: 12.5 mg/kg/injection, schedule: Q04DX002 (ip), vehicle: saline); 102 % of control (dose: 25.0 mg/kg/injection, schedule: Q04DX002 (ip), vehicle: saline); 99 % of control (dose: 50.0 mg/kg/injection, schedule: Q04DX002 (ip), vehicle: saline).
Consider `CN=S(=O)(OCCCCOS(=O)(=NC)c1ccc(C)cc1)c1ccc(C)cc1` (stereo not given), for which, under setting [7], the T/C is 152 % of control.
In the case of `O=C(O)CNC(=O)C(Br)Cc1ccccc1` (stereo not given), the T/C was 90 % of control under setting [5], 100 % of control under setting [6] and 100 % of control under setting [7].
As to `ClC(Cl)(Cl)C(N1CCN(c2ccccc2)CC1)N1CCN(c2ccccc2)CC1`, the T/C is, setting by setting: under setting [1], 104 % of control; under setting [2], 100 % of control; under setting [3], 95 % of control.
On to `OCc1ccccc1[S+]1OCc2ccccc21` (stereo not given), for which the T/C runs as follows: (dose: 50.0 mg/kg/injection, schedule: Q01DX009 (ip), vehicle: other) 104 % of control; (dose: 100.0 mg/kg/injection, schedule: Q01DX009 (ip), vehicle: other) 97 % of control; (dose: 200.0 mg/kg/injection, schedule: Q01DX009 (ip), vehicle: other) 108 % of control.
Turning to `C=C(C)C(=O)NCC(=O)Oc1ccc([N+](=O)[O-])cc1`, the T/C was 86 % of control under setting [1], 102 % of control under setting [2] and 93 % of control under setting [3].
As to `CC(=O)N=C1C=C(NC(C)=O)C(=O)c2ncccc21`, the T/C reads like this: (dose: 50.0 mg/kg/injection, schedule: Q04DX003 (ip), vehicle: saline with Tween-80) 109 % of control; under setting [5], 122 % of control; under setting [6], 86 % of control.
Turning to `C#CC1(OCC(O)CCl)CCCCC1` (stereo not given), the T/C under setting [2] is 116 % of control; the T/C under setting [8] was 110 % of control; the T/C under setting [3] is 104 % of control; the T/C under setting [9] was 120 % of control; the T/C (dose: 400.0 mg/kg/injection, schedule: Q04DX003 (ip), vehicle: saline) is 100 % of control.
Regarding `N#CSc1ncnc2nc[nH]c12`, the T/C was 110 % of control (dose: 3.0 mg/kg/injection, schedule: Q01DX009 (ip), vehicle: alkali diluted with saline); 100 % of control (dose: 3.0 mg/kg/injection, schedule: Q04DX003 (ip), vehicle: alkali diluted with saline); 95 % of control (dose: 4.0 mg/kg/injection, schedule: Q01DX009 (ip), vehicle: alkali diluted with saline); 116 % of control (dose: 6.0 mg/kg/injection, schedule: Q01DX009 (ip), vehicle: alkali diluted with saline); 95 % of control (dose: 6.0 mg/kg/injection, schedule: Q04DX003 (ip), vehicle: alkali diluted with saline); 95 % of control (dose: 9.0 mg/kg/injection, schedule: Q01DX009 (ip), vehicle: alkali diluted with saline). In addition, the T/C runs as follows: (dose: 12.0 mg/kg/injection, schedule: Q01DX009 (ip), vehicle: alkali diluted with saline) 120 % of control; (dose: 12.0 mg/kg/injection, schedule: Q04DX003 (ip), vehicle: alkali diluted with saline) 100 % of control and 113 % of control.
As to `O=C1CSC(=O)CS1`, the T/C runs as follows: under setting [1], 99 % of control; under setting [2], 93 % of control.
In the case of `CCOC(=O)C(N)CSC(c1ccccc1)(c1ccccc1)c1ccccc1` (stereo not given), the T/C reads like this: (dose: 9.6 mg/kg/injection, schedule: Q04DX003 (ip), vehicle: saline) 95 % of control; (dose: 14.0 mg/kg/injection, schedule: Q04DX003 (ip), vehicle: saline) 100 % of control; (dose: 33.0 mg/kg/injection, schedule: Q04DX003 (ip), vehicle: saline) 122 % of control; (dose: 50.0 mg/kg/injection, schedule: Q04DX003 (ip), vehicle: saline) 155 % of control; under setting [8], 175 % of control; (dose: 132.0 mg/kg/injection, schedule: Q04DX003 (ip), vehicle: saline) 181 % of control. Further, the T/C by setting is: under setting [9], 181 % of control and 215 % of control; (dose: 300.0 mg/kg/injection, schedule: Q04DX003 (ip), vehicle: saline) 163 % of control.
With `O=C(Nc1ccc(C2=NCCCN2)cc1)Nc1cccc(C(=O)Nc2ccc(C3=NCCCN3)cc2)c1`, the T/C (dose: 16.5 mg/kg/injection, schedule: Q01DX009 (ip), vehicle: saline with Tween-80) was 200 % of control and the T/C (dose: 25.0 mg/kg/injection, schedule: Q01DX009 (ip), vehicle: saline with Tween-80) was 272 % of control.
As to `CN(C)c1ccc(/C=C/c2nccc3ccccc23)cc1`, the T/C (dose: 0.78 mg/kg/injection, schedule: Q01DX009 (ip), vehicle: saline with Tween-80) was 114 % of control; the T/C (dose: 1.56 mg/kg/injection, schedule: Q01DX009 (ip), vehicle: saline with Tween-80) is 112 % of control; the T/C (dose: 3.13 mg/kg/injection, schedule: Q01DX009 (ip), vehicle: saline with Tween-80) was 102 % of control; the T/C (dose: 6.25 mg/kg/injection, schedule: Q01DX009 (ip), vehicle: saline with Tween-80) was 107 % of control and 110 % of control.
As for `C=CCNC(=S)N/N=C\c1cc(OC)c(OC)c(OC)c1`, the T/C is, setting by setting: under setting [1], 95 % of control; under setting [2], 100 % of control; under setting [3], 90 % of control.
For the compound `COC(=O)NC1CCCCC1I` (stereo not given), the T/C reads like this: under setting [2], 100 % of control; under setting [5], 100 % of control; under setting [3], 100 % of control; under setting [6], 100 % of control; under setting [4], 100 % of control; under setting [7], 109 % of control.

Values taken from PubChem BioAssay AID328 (DTP/NCI, 2004).
